How the values were obtained:
[1] = Randomized, crossover, fed/fasted single-dose pharmacokinetic study of oral sustained release tablets of compound (3) in healthy adult subjects; type: in vivo, human
Description: A randomized, crossover, fed/fasted single-dose study of the safety, tolerability, and pharmacokinetics of oral administration of 1-{[(α-isobutanoyloxyethoxy)carbonyl]aminomethyl}-1-cyclohexane acetic acid (3) in healthy adult subjects was conducted. The oral sustained release dosage form of Example 6 (uncoated) was used in this study. The study was designed to evaluate the performance of this formulation in humans in comparison with the commercial gabapentin capsule formulation (Neurontin®, Pfizer). Twelve healthy adult volunteers (7 males and 5 females) participated in the study. Mean body weight was 75.6 kg. All subjects received two different treatments in a random order with a one-week washout between treatments. The two treatments were: A) a single oral dose of Example 6 tablets (2×600 mg) after an overnight fast; and B) a single oral dose of Example 6 tablets (2×600 mg) after a high fat breakfast.
Blood and plasma samples were collected from all subjects prior to dosing, and at 0.5, 1, 1.5, 2, 3, 4, 6, 8, 12, 18, 24, and 36 hours after dosing. Urine samples were collected from all subjects prior to dosing, and complete urine output was obtained at the 0-4 h, 4-8 h, 8-12 h, 12-18 h, 18-24 h, and 24-36 h intervals after dosing. Blood samples were quenched immediately with methanol and stored frozen at […]. Sample aliquots were prepared for analysis of gabapentin and compound (3) using sensitive and specific LC/MS/MS methods.

[2] = cited from earlier work

Row | SMILES | AUC of compound (3) in blood as % of corresponding AUC of gabapentin in blood ([1]; fasted subjects) [%] | Maximum intact compound (3) concentration as % of corresponding peak gabapentin concentration ([1]; fasted subjects) | AUC of compound (3) in blood as % of corresponding AUC of gabapentin in blood ([1]; fed subjects) | Maximum intact compound (3) concentration as % of corresponding peak gabapentin concentration ([1]; fed subjects) | Typical Tmax of immediate release gabapentin [2] [h]
1 | CC(OC(=O)NCC1(CC(=O)O)CCCCC1)OC(=O)C(C)C (stereo not drawn) [compound (3), 1-{[(α-Isobutanoyloxyethoxy)carbonyl]aminomethyl}-1-Cyclohexane Acetic Acid] | 0.3 | approximately 1.0% | less than 0.1% | approximately 0.3% | 
2 | NCC1(CC(=O)O)CCCCC1 [gabapentin] |  |  |  |  | 2 to 4
